{"source": "patent US11919837B1", "about": "“4,4′-naphthalene-1,5-diylbis(diazene-2,1-diyl)dinaphthalen-1-ol as an antioxidant compound” (KING FAISAL UNIVERSITY, priority 2023, dated 2024)", "assay": "DPPH radical scavenging antioxidant test", "format": "biochemical", "conditions": "517 nm; for Inhibition (radical scavenging inhibition): 0.2 mL DPPH (0.75 mM), compound 3 μM in ethanol, 30 min incubation in the dark", "experimental": "The antioxidant properties of the 4,4′-naphthalene-1,5-diylbis(diazene-2,1-diyl)dinaphthalen-1-ol were studied by adding 0.2 mL DPPH (0.75 mM)) to compound 4,4′-naphthalene-1,5-diylbis(diazene-2,1-diyl)dinaphthalen-1-01 (III) (3 μM) in ethanol. After 30 min of incubation in the dark, the absorbance was read against a blank at 517 nm. Ascorbic acid (vitamin C) was used as standard antioxidants (positive control). A blank sample was prepared by 0.2 ml of DPPH in 3 ml ethanol. A negative control sample was run using ethanol instead of the sample. The radical scavenging inhibition was calculated using the following equation: […]"}
{"smiles": "Oc1ccc(N=Nc2cccc3c(N=Nc4ccc(O)c5ccccc45)cccc23)c2ccccc12", "note": "[Product III, 4,4′-naphthalene-1,5-diylbis(diazene-2,1-diyl)dinaphthalen-1-ol]", "values": [{"measurement": "Inhibition (radical scavenging inhibition)", "result": 54, "unit": "%"}, {"measurement": "antioxidant potential compared to vitamin C (in words)", "setting": "DPPH in vitro test, vitamin C as positive control", "result": "high potential as an antioxidant compared to vitamin C"}]}
{"smiles": "O=C1O[C@H]([C@@H](O)CO)C(O)=C1O", "note": "[vit c, Ascorbic acid, reference compound]", "values": [{"measurement": "Inhibition (radical scavenging inhibition)", "result": 74, "unit": "%"}]}
